In ChEMBL document CHEMBL5042471, “Development and Application of Subtype-Selective Fluorescent Antagonists for the Study of the Human Adenosine A1 Receptor in Living Cells” (J Med Chem, 2021):

What was measured:
Adenosine receptor A3 [1] = biological target: T1, Adenosine receptor A3 (Homo sapiens, UniProt P0DMS8); assay: Antagonist activity at N-terminal NLuc tagged human A3 adenosine receptor; format: functional
T1 sequence (P0DMS8 whole entry): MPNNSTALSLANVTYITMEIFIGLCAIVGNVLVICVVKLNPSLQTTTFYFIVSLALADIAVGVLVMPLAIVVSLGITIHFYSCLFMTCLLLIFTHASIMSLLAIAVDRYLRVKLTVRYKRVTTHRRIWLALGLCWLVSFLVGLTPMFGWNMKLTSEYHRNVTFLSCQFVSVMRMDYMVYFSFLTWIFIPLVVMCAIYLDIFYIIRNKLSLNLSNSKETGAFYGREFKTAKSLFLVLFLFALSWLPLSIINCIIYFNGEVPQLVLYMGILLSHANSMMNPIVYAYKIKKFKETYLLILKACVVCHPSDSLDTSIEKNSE

Adenosine receptor A1 = biological target: T2, Adenosine receptor A1 (Homo sapiens, UniProt P30542); assay: Binding affinity to N-terminal NLuc tagged human A1 adenosine receptor expressed in Flp-In-CHO cells by competitive binding assay; format: cell-based
T2 sequence (P30542 whole entry): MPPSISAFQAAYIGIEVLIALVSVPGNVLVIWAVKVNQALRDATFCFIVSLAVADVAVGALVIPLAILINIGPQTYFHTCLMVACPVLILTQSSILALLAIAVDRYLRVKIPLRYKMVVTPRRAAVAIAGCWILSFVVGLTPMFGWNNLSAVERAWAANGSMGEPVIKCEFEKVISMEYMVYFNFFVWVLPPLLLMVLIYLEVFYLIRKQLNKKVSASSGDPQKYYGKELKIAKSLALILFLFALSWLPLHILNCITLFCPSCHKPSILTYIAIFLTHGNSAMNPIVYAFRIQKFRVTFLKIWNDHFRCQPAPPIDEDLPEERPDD

Adenosine receptor A3 [2] = biological target: T1, Adenosine receptor A3; assay: Agonist activity at human A3 adenosine receptor expressed in Flp-In-CHO cells assessed as calcium influx by competitive binding assay; format: functional, cell-based
Adenosine receptor A3 [3] = biological target: T1, Adenosine receptor A3; assay: Agonist activity at A3 adenosine receptor (unknown origin); format: functional

Row | Kd (Adenosine receptor A3 [1]) [µM] | Ki (Adenosine receptor A1) [µM] | EC50 (Adenosine receptor A3 [2]) [µM] | EC50 (Adenosine receptor A3 [3]) [µM] | Compound
1 | 0.0309 | 0.00933 | – | – | CCCn1c(=O)c2[nH]c(-c3ccc(OCC(=O)NCCNC(=O)CCCCNC(=O)COc4ccc(/C=C/C5=[N+]6C(=Cc7ccc(-c8cccs8)n7[B-]6(F)F)C=C5)cc4)cc3)nc2n(CCC)c1=O
2 | – | – | 1.26 | 0.0501 | O=C(CCCCCNC(=O)COc1ccc(/C=C/C2=[N+]3C(=Cc4ccc(-c5cccs5)n4[B-]3(F)F)C=C2)cc1)NCCCCNc1ncnc2c1ncn2[C@@H]1O[C@H](CO)[C@@H](O)[C@H]1O
